Literature values as cited in publication PMC5525545 (Nature, 2017).

Tests used:
AT2R = settings: activation of AT2R
[1] = patients with post-herpetic neuralgia
[2] = tested on: AngII-induced neuronal excitability
[3] = several neuropathic pain models in rodents

SMILES: CCCCOC(=O)NS(=O)(=O)c1sc(CC(C)C)cc1-c1ccc(Cn2ccnc2)cc1 [Compound 21]
- beneficial in vivo effects (AT2R): inducing pressure natriuresis, lowering blood pressure, conferring acute vaso-relaxation, and exhibiting organ protective effects

SMILES: COc1ccc2c(c1OCc1ccccc1)C[C@@H](C(=O)O)N(C(=O)C(c1ccccc1)c1ccccc1)C2 [EMA401]
- efficacy in phase II clinical trials [1]: demonstrated efficacy

SMILES: Cc1cc(Cn2cnc3c2C[C@@H](C(=O)O)N(C(=O)C(c2ccccc2)c2ccccc2)C3)ccc1N(C)C [PD123319]
- effect on AngII-induced neuronal excitability [2]: blocks AngII-induced neuronal excitability
- oral bioavailability [3]: exhibits oral bioavailability
